In ChEMBL document CHEMBL1141548, “Synthesis of a small library of 2-phenoxy-1,4-naphthoquinone and 2-phenoxy-1,4-anthraquinone derivatives bearing anti-trypanosomal and anti-leishmanial activity” (Bioorg Med Chem Lett, 2008):

What was measured:
Leishmania donovani = experiment: Antileishmanial activity against Leishmania donovani MHOM-ET-67/L82 amastigotes by microplate assay; type: functional, organism-based
L6 = experiment: Cytotoxicity against rat L6 cells; type: cell-based
Trypanosoma cruzi = experiment: Antitrypanosomal activity against Trypanosoma cruzi Tulahuen C4 amastigotes by microplate assay; type: functional, organism-based
[1] = Selectivity index, ratio of IC50 for rat L6 cells to IC50 for Trypanosoma brucei rhodesiense STIB900; type: functional, cell-based
[2] = Selectivity index, ratio of IC50 for rat L6 cells to IC50 for Leishmania donovani MHOM-ET-67/L82; type: functional, cell-based
[3] = Selectivity index, ratio of IC50 for rat L6 cells to IC50 for Trypanosoma cruzi Tulahuen C4; type: functional, cell-based
[4] = test system: Trypanosoma brucei rhodesiense; experiment: Antitrypanosomal activity against Trypanosoma brucei rhodesiense STIB900 trypomastigotes by microplate assay; type: functional, organism-based

Structure (SMILES) | IC50 (Leishmania donovani) [nM] | IC50 (L6) [nM] | IC50 (Trypanosoma cruzi) [nM] | selectivity index [1] | selectivity index [2] | selectivity index [3] | IC50 [4] [nM]
CCCCCCCCCCCCCCCCOP(=O)([O-])OCC[N+](C)(C)C [MILTEFOSINE] | 310 | – | – | – | – | – | –
O=C1C=C(Oc2ccccc2)C(=O)c2ccccc21 | 1260 | 5920 | 1260 | 74 | 4.69 | 4.7 | 80
O=C1C=C(Oc2ccc(Br)cc2Br)C(=O)c2ccccc21 | 2370 | 28500 | 34300 | 55.7 | 12.1 | 0.83 | 510
O=C1C=C(Oc2ccc(Cl)cc2F)C(=O)c2ccccc21 | 700 | 4580 | 4430 | 12.5 | 6.54 | 1.03 | 370
Cc1ccc(OC2=CC(=O)c3ccccc3C2=O)c(C)c1 | 510 | 5260 | 2470 | 24.4 | 10.3 | 2.13 | 220
Cc1ccc(OC2=CC(=O)c3cc4ccccc4cc3C2=O)cc1Br | 360 | 2560 | 6360 | 17.4 | 7.1 | 0.4 | 150
O=C1C=C(Oc2ccc(Br)cc2Br)C(=O)c2cc3ccccc3cc21 | 470 | 2190 | 16400 | 15.4 | 4.71 | 0.13 | 140
O=C1C=C(Oc2ccc(F)cc2Br)C(=O)c2ccccc21 | 1810 | 4660 | 3740 | 13.1 | 2.58 | 1.25 | 360
O=C1C=C(Oc2ccc(F)cc2F)C(=O)c2ccccc21 | 2290 | 5510 | 5000 | 14.2 | 2.41 | 1.1 | 390
Cc1ccc(OC2=CC(=O)c3cc4ccccc4cc3C2=O)c(C)c1 | 550 | 4130 | 22500 | 13.2 | 7.53 | 0.18 | 310
Cc1ccc(OC2=CC(=O)c3ccccc3C2=O)cc1Br | 920 | 4920 | 2880 | 16.4 | 5.34 | 1.71 | 300
O=C1C=C(Oc2ccccc2)C(=O)c2cc3ccccc3cc21 | 340 | 1000 | 4660 | 20 | 2.94 | 0.21 | 50
O=C1C=C(Oc2ccc(Cl)cc2Cl)C(=O)c2ccccc21 | 1320 | 5180 | 5950 | 17.8 | 3.94 | 0.87 | 290
O=C1C=C(Oc2ccc(Cl)cc2Cl)C(=O)c2cc3ccccc3cc21 | 490 | 2010 | 13700 | 31 | 4.15 | 0.15 | 65
O=C1C=C(Oc2ccc(F)cc2F)C(=O)c2cc3ccccc3cc21 | 280 | 1980 | 7140 | 8.43 | 7.01 | 0.28 | 240
O=C1C=C(Oc2ccc(F)cc2Br)C(=O)c2cc3ccccc3cc21 | 350 | 1130 | 2870 | 14.1 | 3.24 | 0.39 | 80
O=C1C=C(Oc2ccc(Cl)cc2F)C(=O)c2cc3ccccc3cc21 | 530 | 2640 | 21500 | 12.4 | 5.01 | 0.12 | 210
